Data from article PMC2858264 (Biochemistry, 2010).

Target: T1, rR-HPCDH1 (Xanthobacter versatilis, UniProt Q56840)
T1 sequence (Q56840 2-250): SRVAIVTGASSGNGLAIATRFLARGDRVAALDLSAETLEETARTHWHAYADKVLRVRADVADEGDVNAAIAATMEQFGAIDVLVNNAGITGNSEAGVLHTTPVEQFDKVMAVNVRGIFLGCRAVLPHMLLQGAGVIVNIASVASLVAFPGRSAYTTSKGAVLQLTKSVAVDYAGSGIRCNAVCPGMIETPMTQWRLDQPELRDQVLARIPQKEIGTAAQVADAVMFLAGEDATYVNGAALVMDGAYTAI
Assay: NADH absorbance at […] nm, initial rates
Format: biochemical

Ki: 290 ± 14 µM
SMILES: CC(C)(O)CSCCS(=O)(=O)O [M-HPC, 2-(2-methyl-2-hydroxypropylthio)ethanesulfonate]
